Source: ChEMBL document CHEMBL5352468, “Rational design, synthesis, and pharmacological evaluation of a cohort of novel beta-adrenergic receptors ligands enables an assessment of structure-activity relationships” (Eur J Med Chem, 2023)

Assays:
Format in all cases: functional, cell-based
[1] = target: T1, Beta-3 adrenergic receptor (Homo sapiens, UniProt P13945); assay: Antagonist activity at human beta3-adrenergic receptor expressed in CHO-K1 cells co-expressing CRE-SPAP reporter gene assessed as inhibition of fenoterol-induced CRE-SPAP production by measuring rightward shift of the fenoterol concentration response curve measured after 5 hrs incubation
T1 sequence (P13945 whole entry): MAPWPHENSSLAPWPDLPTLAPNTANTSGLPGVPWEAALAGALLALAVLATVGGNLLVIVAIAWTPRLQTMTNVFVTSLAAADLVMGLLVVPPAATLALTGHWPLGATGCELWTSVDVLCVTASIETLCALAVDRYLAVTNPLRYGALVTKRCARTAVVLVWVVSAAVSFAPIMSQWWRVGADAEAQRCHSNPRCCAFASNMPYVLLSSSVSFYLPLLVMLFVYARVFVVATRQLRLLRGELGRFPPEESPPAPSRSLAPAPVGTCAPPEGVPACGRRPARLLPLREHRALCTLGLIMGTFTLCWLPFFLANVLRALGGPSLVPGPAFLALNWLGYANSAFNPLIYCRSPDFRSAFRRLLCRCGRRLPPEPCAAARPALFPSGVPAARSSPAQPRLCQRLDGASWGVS

[2] = target: T1, Beta-3 adrenergic receptor; assay: Agonist activity at human beta3-adrenergic receptor expressed in CHO-K1 cells co-expressing CRE-SPAP reporter gene assessed as CRE-SPAP production measured after 5 hrs incubation
[3] = target: T2, Beta-2 adrenergic receptor (Homo sapiens, UniProt P07550); assay: Agonist activity at human beta2-adrenergic receptor expressed in CHO-K1 cells co-expressing CRE-SPAP reporter gene assessed as CRE-SPAP production measured after 5 hrs incubation
T2 sequence (P07550 whole entry): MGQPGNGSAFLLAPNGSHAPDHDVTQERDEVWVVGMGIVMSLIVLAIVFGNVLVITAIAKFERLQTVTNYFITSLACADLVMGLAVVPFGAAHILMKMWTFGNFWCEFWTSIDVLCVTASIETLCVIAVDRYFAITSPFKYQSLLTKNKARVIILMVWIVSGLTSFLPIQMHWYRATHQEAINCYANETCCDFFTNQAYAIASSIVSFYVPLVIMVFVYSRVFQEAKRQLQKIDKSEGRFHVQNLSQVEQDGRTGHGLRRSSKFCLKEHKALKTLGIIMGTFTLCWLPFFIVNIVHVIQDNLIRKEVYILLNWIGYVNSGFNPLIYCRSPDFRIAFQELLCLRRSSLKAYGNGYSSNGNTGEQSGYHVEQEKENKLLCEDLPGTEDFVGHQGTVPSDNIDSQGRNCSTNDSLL

[4] = target: T2, Beta-2 adrenergic receptor; assay: Antagonist activity at human beta2-adrenergic receptor expressed in CHO-K1 cells co-expressing CRE-SPAP reporter gene assessed as inhibition of fenoterol-induced CRE-SPAP production by measuring rightward shift of the fenoterol concentration response curve measured after 5 hrs incubation
[5] = target: T3, Beta-1 adrenergic receptor (Homo sapiens, UniProt P08588); assay: Agonist activity at human beta1-adrenergic receptor expressed in CHO-K1 cells co-expressing CRE-SPAP reporter gene assessed as CRE-SPAP production measured after 5 hrs incubation
T3 sequence (P08588 whole entry): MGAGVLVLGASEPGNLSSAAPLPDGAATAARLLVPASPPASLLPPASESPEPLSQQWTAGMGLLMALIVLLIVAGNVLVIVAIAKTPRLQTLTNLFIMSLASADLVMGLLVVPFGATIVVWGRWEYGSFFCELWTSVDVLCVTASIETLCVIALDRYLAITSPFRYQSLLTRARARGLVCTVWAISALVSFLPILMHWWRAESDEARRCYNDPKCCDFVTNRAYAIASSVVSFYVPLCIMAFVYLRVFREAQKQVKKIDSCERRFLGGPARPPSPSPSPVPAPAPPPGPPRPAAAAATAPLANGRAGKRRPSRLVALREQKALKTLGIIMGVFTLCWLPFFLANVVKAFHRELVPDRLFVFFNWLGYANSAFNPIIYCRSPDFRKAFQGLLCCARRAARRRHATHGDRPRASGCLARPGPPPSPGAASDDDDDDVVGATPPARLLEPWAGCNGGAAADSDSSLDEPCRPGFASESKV

[6] = target: T3, Beta-1 adrenergic receptor; assay: Antagonist activity at human beta1-adrenergic receptor expressed in CHO-K1 cells co-expressing CRE-SPAP reporter gene assessed as inhibition of fenoterol-induced CRE-SPAP production by measuring rightward shift of the fenoterol concentration response curve measured after 5 hrs incubation

Compound	Kd ([4]; read-out: pKd (converted)) [nM]	Kd ([6]; read-out: pKd (converted)) [nM]	Kd ([1]; read-out: Kd) [nM]	also measured
CC(=O)NCc1cccc(OC[C@@H](O)CNCCc2ccc(NS(=O)(=O)c3ccccc3)cc2)c1	74.1	339	–	Kd ([1]; read-out: pKd (converted)): 6.76 nM; EC50 ([2]; read-out: pEC50 (converted)): 4.47 nM; EC50 ([3]; read-out: EC50): 10000 nM; EC50 [5]: 380 nM
CC1(C)CC(=O)c2ccc(OC[C@@H](O)CNCCCc3ccccc3)cc2O1	–	–	> 10000	–
COc1ccc(S(=O)(=O)NCCCCCCNC[C@H](O)COc2ccc3ccc(=O)oc3c2)cc1	–	–	> 10000	–
CC1(C)CC(=O)c2ccc(OC[C@@H](O)CNCCCN3C(=O)c4ccccc4C3=O)cc2O1	–	–	–	Kd ([6]; read-out: Kd): > 10000 nM
CS(=O)(=O)c1ccc(CCNC[C@H](O)COc2ccc3ccc(=O)oc3c2)cc1	–	–	> 10000	Kd ([4]; read-out: Kd): > 10000 nM
CCc1ccccc1OC[C@@H](O)CNCCC(c1ccccc1)c1ccccc1	–	135	–	EC50 [5]: 309 nM
O[C@@H](CNCC1COc2ccccc2O1)COc1ccc2c(c1)OCO2 (stereo partly drawn)	1550	1580	–	EC50 [5]: 316 nM
CC1(C)CC(=O)c2ccc(OC[C@H](O)CNCCCc3ccccc3)cc2O1	–	–	> 10000	–
O=c1ccc2ccc(OC[C@@H](O)CNCCc3ccc4c(c3)OCO4)cc2o1	–	5620	> 10000	–
CCc1ccccc1OC[C@@H](O)CN[C@H]1CCCc2ccccc21	3.8	–	–	Kd ([1]; read-out: pKd (converted)): 69.2 nM; EC50 ([2]; read-out: pEC50 (converted)): 191 nM; EC50 ([3]; read-out: pEC50 (converted)): 8.71 nM
COC(=O)[C@H](N)Cc1ccc(OC[C@@H](O)CNCC2COc3ccccc3O2)cc1 (stereo partly drawn)	–	–	> 10000	–
CC1(C)CC(=O)c2ccc(OC[C@H](O)CNCCCN3C(=O)c4ccccc4C3=O)cc2O1	–	–	–	Kd ([6]; read-out: Kd): > 10000 nM
O[C@@H](CNCC1COc2ccccc2O1)COc1ccnc2ccccc12 (stereo partly drawn)	–	6030	–	–
CC(=O)Nc1ccc(CCNC[C@H](O)COc2ccc3ccc(=O)oc3c2)cc1	–	–	> 10000	Kd ([4]; read-out: Kd): > 10000 nM
COc1ccc(S(=O)(=O)NCCCCNC[C@H](O)COc2ccc3c(c2)OC(C)(C)CC3=O)cc1	–	–	> 10000	Kd ([6]; read-out: Kd): > 10000 nM
O=C1COc2cc(OC[C@@H](O)CNCC3COc4ccccc4O3)ccc21 (stereo partly drawn)	3630	–	–	–
O=c1ccc2ccc(OC[C@@H](O)CNCC3COc4ccccc4O3)cc2o1 (stereo partly drawn)	6610	–	–	–
O[C@@H](CNCC1COc2ccccc2O1)COc1cccc2cnccc12 (stereo partly drawn)	107	102	–	Kd ([1]; read-out: pKd (converted)): 1350 nM; EC50 ([2]; read-out: EC50): 10000 nM; EC50 ([3]; read-out: EC50): 10000 nM; EC50 [5]: 74.1 nM
